For experiment [1], the system named is AFB. In words: Sputum AFB test (Ziehl-Neelson stain) in pulmonary tuberculosis patients. Format: in vivo, human. The procedure:
Fifty four patients suffering from pulmonary tuberculosis were included in this study. Thirty patients were treated with four anti-tubercular drugs only. Twenty-four patients were treated with four anti-tubercular drugs and antioxidant drugs concomitantly.
Four antitubercular drugs were given by oral route to all 54 patients in doses and frequency as shown below for a period of 60 days. The dosage regime for the anti-microbial drugs is known in the art as “2EHRZ.” It is an oral daily capsule of rifampicin, a tablet of isoniazid, a tablet of Pyrizinamide, and a tablet of ethambutal.
Out of the total test population of fifty-four patients, twenty-four patients received, in addition to the above 2EHRZ regime, Factor Alpha tx for 60 days, administered daily, orally.
In both of the two groups, three sputum samples for each patient were collected and were analyzed for the presence of AFB after 15 days, after 30 days and after sixty days. Analysis was by the Ziehl-Neelson (hot) stain method. The reports were documented as positive for presence of bacilli & negative for absence of bacilli.
The first group (the control group) received Rifampicin, Isoniazid, Ethambutol and Pyrazinamide in daily oral doses mentioned above, on Out Patient Department (OPD) basis for 60 days. […]

Experiment [2] concerns sensitive strains of Mycobacterium Tuberculosis bacilli (MTB). In words: Antibacterial efficacy in LJ medium, in vitro culture. The format is cell-based.
Experiment [3] has as its system Pseudomonas. In words: Antibacterial activity in broth, culture growth after 24 hrs. The format is cell-based.
For experiment [4], the system named is Staphylococci. The description is as above. The format is cell-based.
The subject of experiment [5] is Escherichia coli. The experiment is described as above. Format: cell-based.

Turning to `Cc1c(C)c2c(c(C)c1O)CC[C@@](C)(CCC[C@H](C)CCC[C@H](C)CCCC(C)C)O2` [Factor Alpha tx, α-tocopherol], the “effect on sputum negativity of concurrent administration with routine anti tubercular agents” value in experiment [1] was “synergistic effects in augmenting sputum negativity”. In addition, in experiment [2], the antibacterial efficacy entry was “effective”. Moreover, the antibacterial activity result in experiment [3], in experiment [4] and in experiment [5] was “has antibacterial activity” each time.

Source of the values: patent publication US20050171116A1, “Enhancing the efficacy of tubercular drugs” (priority 2004, published 2005).
